From patent publication EP0133259A2, “Aminoalkyl-substituted benzene derivatives, process for production thereof, and pharmaceutical composition thereof” (KOWA COMPANY, LTD., priority 1983, dated 1985)
Structures can show the parent of a compound that is named as a salt.

Legend:
[1] = system: Chloroform-Induced Arrhythmia; assay: Activity on chloroform-induced arrhythmia; assay type: in vivo, ICR-strain mice; conditions: 100 mg/kg orally; for Antiarrhythmic activity: Rate of onset of VF / Antiarrhythmic activity: Rate of onset of VT: 10 mice per group; for Antiarrhythmic activity: Rate of onset of VF: ventricular fibrillation after chloroform vapor; for Antiarrhythmic activity: Rate of onset of VT: ventricular tachycardia after chloroform vapor; for Antiarrhythmic activity: Duration of activity: relative to the duration time of Lidocaine (+)
Protocol: Activity on Chloroform-Induced Arrhythmia:-ICR-strain mice having a body weight of 20 to 30 g (10 per group) were used, and the test compound was administered orally in a dose of 100 mg/kg. The mice were put in a 1-liter beaker, and observed for 20 minutes for their symptoms or conditions. Then, they were placed in a vessel saturated with a vapor of chloroform, and the time which elapsed until the animals ceased to breathe was measured. After the stopping of the breathing, the mice were taken out from the vessel and their cardiograms were taken. The rates of onset of ventricular tachycardia (VT) and ventricular fibrillation (VF) and their conditions were observed. The duration of activity was determined by using as a standard the time during which the mice were put in the chloroform- saturated vessel. […] Lidocaine was used as a comparative drug.

blood pressure = assay: Hypotensive action (average blood pressure via carotid cannula, conscious animals); assay type: in vivo, Mice
Protocol: Hypotensive action:- • Mice having a body weight of about 30 g (5 per group) were used. Under anaesthesia with pentobarbital, the carotid was […] from each animal. A cannula was inserted into the animal and connected to a pressure transducer. A tracheal cannula was applied, and the animal was fixed on its back. After the animals awoke from anesthesia, their average blood pressures were measured by the pressure transducer.
The drug was orally administered in a dose of 30 mg/kg, and changes in the blood pressure were measured. Physiological saline was administered to a control group.
The drug used in Test Example 2 was the compound prepared in Example 6.

Row | SMILES | Antiarrhythmic activity: Rate of onset of VF [1] | Antiarrhythmic activity: Rate of onset of VT [1] | Antiarrhythmic activity: Duration of activity [1] | Average blood pressure (blood pressure; 30 mg/kg orally, 10 minutes after the administration) | Average blood pressure (blood pressure; 30 mg/kg orally, 30 minutes after the administration) | Average blood pressure (blood pressure; 30 mg/kg orally, 60 minutes after the administration) | Average blood pressure (blood pressure; 30 mg/kg orally, 120 minutes after the administration) | Average blood pressure (blood pressure; before administration, 5 mice per group) | Condition ([1]; symptoms observed for 20 minutes, indicated when the same tendency was seen in all subjects)
1 | COc1ccc(OCC(F)(F)F)cc1NC(=O)CC(C)N (stereo not drawn) [Example 3, 3-Amino-2'-methoxy-5'-(2,2,2-trifluoroethoxy)-butyranilide-hemifumarate] | 0/10 | 2/10 | +++ | – | – | – | – | – | –
2 | COc1ccc(OCCO[N+](=O)[O-])cc1OCC(C)N (stereo not drawn) [Example 4, 1-[2-Methoxy-5-(2-nitroxyethoxy)phenoxy]-2-propanamine.maleate] | 0/10 | 4/10 | ++ | – | – | – | – | – | –
3 | Cc1cc(OCCO[N+](=O)[O-])cc(C)c1NC(=O)C(C)N (stereo not drawn) [Example 6, 2-Amino-2',6'-dimethyl-4'-(2-nitroxyethoxy)-propionanilide·hydrochloride] | 0/10 | 1/10 | ++ | 73.3 ±8.5 (*) mmHg | 76.4 ±7.8 (*) mmHg | 77.4 ±8.1 (*) mmHg | 80.3 ±8.0 (**) mmHg | 86.3 ±6.8 mmHg | –
4 | Cc1ccc(OCCO[N+](=O)[O-])cc1NC(=O)CC(C)N (stereo not drawn) [Example 22, 3-Amino-2'-methyl-5'-(2-nitroxyethoxy)butyr.- anilide-hydrochloride] | 0/10 | 0/10 | ++ | – | – | – | – | – | –
5 | CC(N)C(=O)Nc1cc(OCCO[N+](=O)[O-])ccc1F (stereo not drawn) [Example 24, 2-Amino-2'-fluoro-5'-(2-nitroxyethoxy)propionanilide] | 0/10 | 2/10 | + | – | – | – | – | – | –
6 | Cc1ccc(OCC(F)(F)F)cc1NC(=O)C(C)N (stereo not drawn) [Example 38, 2-Amino-2'-methyl-5'-(2,2,2-trifluoroethoxy)-propionanilide] | 2/10 | 5/10 | + | – | – | – | – | – | –
7 | Cc1ccc(OCC(F)(F)F)cc1NC(=O)CC(C)N (stereo not drawn) [Example 40, 3-Amino-2'-methyl-5'-(2,2,2-trifluoroethoxy)-butyranilide·hydrochloride] | 0/10 | 0/10 | +++ | – | – | – | – | – | –
8 | Cc1cc(OCC(F)(F)F)cc(C)c1NC(=O)C(C)N (stereo not drawn) [Example 41, 2-Amino-2',6^1-dimethyl-4^1-(2,2,2-trifluoroethoxy)propionanilide·hydrochloride] | 1/10 | 0/10 | +++ | – | – | – | – | – | –
9 | CCN(CC)CC(=O)Nc1c(C)cccc1C [Lidocaine, reference compound] | 2/10 | 0/10 | + | – | – | – | – | – | Weak sedation
